Assay results as given in patent publication US20030118577A1, “Use of analogues of superoxide dismutase for treating hepatocellular insufficiencies” (priority 2000, published 2003).

Columns and labels:
[1] = test system: acute hepatic insufficiency induced by anti-Fas antibodies; experiment: Survival of mice after injection of anti-Fas antibody (fulminant hepatitis); format: in vivo; details: at 24 hours; 6 μg anti-Fas antibody iv; MnTBAP 10 mg/kg 2 hours beforehand; FIG. 3
Procedure: The injection of these antibodies into mice causes fulminant hepatitis due to a massive apoptosis of the hepatocytes, causing the death of the mice within a few hours following the injection [OGASAWARA et al., Nature, 364, pp. 806-809, (1993); NAGATA, Prog. Mol. Subcell. Biol., 16, pp. 87-103, (1996)].
27 control mice received, by intravenous injection, 6 μg of an anti-Fas monoclonal antibody (clone J02; PHARMINGEN) diluted in 100 μl of physiological saline; a second group of 15 mice received the same treatment, preceded by the administration, 2 hours beforehand, of 10 mg/kg of MnTBAP, as described in Example 1 above; a control group received MnTBAP alone (10 mg/kg).

[2] = test system: hepatocellular insufficiency induced by chronic intoxication with DMNA; experiment: Chronic intoxication with DMNA, histological examination; format: in vivo, mice
Procedure: The inventors also investigated the effects of MnSOD mimetics on hepatocellular insufficiency of toxic origin which can be induced in particular by alcohol, using an experimental model of intoxication with dimethylnitrosamine (DMNA) administered at the dose of 10 mg/kg in mice. This model is similar to intoxication with alcohol because the lesions induced by DMNA and alcohol are identical.
Intraperitoneal administration of 10 mg/kg/day of DMNA three times per week induces, in dogs and rodents, centrolobular and periportal lesions comprising fibrosis at the 4th week, and cirrhosis at the 13th week [RISTELLI et al., J. Biochem., 158, 361-367, (1976); MADDEN et al., Surgery, 68, 260-267, (1970)].

[3] = test system: ischemic lesions of hepatic grafts; experiment: Transaminase release from removed mouse livers in Belzer's preservation fluid; details: Belzer's fluid with MnTBAP 10 μg/ml; 4° C.
Procedure: Ischemia of hepatic grafts after their removal and during their preservation at 4° C. causes hepatocytic lesions.
The intensity of the lesions may be evaluated on the concentration of transaminases in the preservation fluid.
Mouse livers were surgically removed, rinsed with Belzer's preservation fluid supplemented or otherwise with MnTBAP at the concentration of 10 μg/ml. The transaminases were then assayed in the fluid at various times after removal of the organ.

[4] = Glutathione peroxidase activity of the mimetic; format: biochemical; details: observed by the inventors
[5] = known; cited from earlier work
[6] = test system: acute hepatic insufficiency induced by acetaminophen; experiment: Survival of mice after intraperitoneal acetaminophen (acute hepatic insufficiency); details: for rate of survival: 24 hours after acetaminophen 1000 mg/kg ip, FIG. 1

O=C(O)c1ccc(-c2c3nc(c(-c4ccc(C(=O)O)cc4)c4ccc([n-]4)c(-c4ccc(C(=O)O)cc4)c4nc(c(-c5ccc(C(=O)O)cc5)c5ccc2[n-]5)C=C4)C=C3)cc1.[Mn+3] [MnTBAP, Mn(III) tetrakis(5,10,15,20-benzoic acid)porphyrin]
rate of survival [1]: ~60% | appearance of hepatic lesions on histological sections ([2]; DMNA 10 mg/kg in mice, different intoxication times): delays the appearance of hepatic lesions | constitution of fibrosis on histological examination ([2]; DMNA 10 mg/kg/day ip three times per week, MnTBAP 10 mg/kg ip 24 hours after each DMNA): prevents the constitution of objectively viable fibrosis | release of transaminases by the liver into preservation fluid [3]: reduction in the release of transaminases | glutathione peroxidase activity [4]: possessed, in addition, a glutathione peroxidase activity | catalase activity [5]: known to possess a catalase activity | rate of survival ([6]; MnTBAP 10 mg/kg ip 2 h before acetaminophen): ~60% | rate of survival ([6]; MnTBAP 10 mg/kg ip 6 h after acetaminophen): greater than 40% | effect on survival rate, administered preventively ([6]; APAP 1000 mg/kg, 2 hours before (P)): increases the survival rate in a manner at least equal to NAC | activity on survival, curative versus preventive administration ([6]; APAP 1000 mg/kg, 6 hours after (C) or 2 hours before (P)): active when it is administered curatively | activity on survival by the oral route ([6]; APAP 1000 mg/kg, per os): active | percentage of surviving animals ([6]; Group II: MnTBAP 10 mg/kg alone, no APAP, time 0 h): 100% | percentage of surviving animals ([6]; Group II: MnTBAP 10 mg/kg alone, no APAP, time 6 h): 100% | percentage of surviving animals ([6]; Group II: MnTBAP 10 mg/kg alone, no APAP, time 8 h): 100% | percentage of surviving animals ([6]; Group II: MnTBAP 10 mg/kg alone, no APAP, time 9 h): 100% | percentage of surviving animals ([6]; Group II: MnTBAP 10 mg/kg alone, no APAP, time 10 h): 100% | percentage of surviving animals ([6]; Group II: MnTBAP 10 mg/kg alone, no APAP, time 11 h): 100% | percentage of surviving animals ([6]; Group II: MnTBAP 10 mg/kg alone, no APAP, time 12 h): 100% | percentage of surviving animals ([6]; Group II: MnTBAP 10 mg/kg alone, no APAP, time 13 h): 100% | percentage of surviving animals ([6]; Group II: MnTBAP 10 mg/kg alone, no APAP, time 14 h): 100% | percentage of surviving animals ([6]; Group II: MnTBAP 10 mg/kg alone, no APAP, time 15 h): 100% | percentage of surviving animals ([6]; Group II: MnTBAP 10 mg/kg alone, no APAP, time 16 h): 100% | percentage of surviving animals ([6]; Group II: MnTBAP 10 mg/kg alone, no APAP, time 17 h): 100% | percentage of surviving animals ([6]; Group II: MnTBAP 10 mg/kg alone, no APAP, time 18 h): 100% | percentage of surviving animals ([6]; Group II: MnTBAP 10 mg/kg alone, no APAP, time 20 h): 100% | percentage of surviving animals ([6]; Group II: MnTBAP 10 mg/kg alone, no APAP, time 22 h): 100% | percentage of surviving animals ([6]; Group II: MnTBAP 10 mg/kg alone, no APAP, time 24 h): 100% | percentage of surviving animals ([6]; Group IX: APAP 1000 mg/kg, MnTBAP 50 mg/kg (P) per os, time 0 h): 100% | percentage of surviving animals ([6]; Group IX: APAP 1000 mg/kg, MnTBAP 50 mg/kg (P) per os, time 6 h): 100% | percentage of surviving animals ([6]; Group IX: APAP 1000 mg/kg, MnTBAP 50 mg/kg (P) per os, time 8 h): 88.8% | percentage of surviving animals ([6]; Group IX: APAP 1000 mg/kg, MnTBAP 50 mg/kg (P) per os, time 9 h): 88.8% | percentage of surviving animals ([6]; Group IX: APAP 1000 mg/kg, MnTBAP 50 mg/kg (P) per os, time 10 h): 88.8% | percentage of surviving animals ([6]; Group IX: APAP 1000 mg/kg, MnTBAP 50 mg/kg (P) per os, time 11 h): 88.8% | percentage of surviving animals ([6]; Group IX: APAP 1000 mg/kg, MnTBAP 50 mg/kg (P) per os, time 12 h): 88.8% | percentage of surviving animals ([6]; Group IX: APAP 1000 mg/kg, MnTBAP 50 mg/kg (P) per os, time 13 h): 88.8% | percentage of surviving animals ([6]; Group IX: APAP 1000 mg/kg, MnTBAP 50 mg/kg (P) per os, time 14 h): 88.8% | percentage of surviving animals ([6]; Group IX: APAP 1000 mg/kg, MnTBAP 50 mg/kg (P) per os, time 15 h): 88.8% | percentage of surviving animals ([6]; Group IX: APAP 1000 mg/kg, MnTBAP 50 mg/kg (P) per os, time 16 h): 88.8% | percentage of surviving animals ([6]; Group IX: APAP 1000 mg/kg, MnTBAP 50 mg/kg (P) per os, time 17 h): 77.7% | percentage of surviving animals ([6]; Group IX: APAP 1000 mg/kg, MnTBAP 50 mg/kg (P) per os, time 18 h): 66.6% | percentage of surviving animals ([6]; Group IX: APAP 1000 mg/kg, MnTBAP 50 mg/kg (P) per os, time 20 h): 66.6% | percentage of surviving animals ([6]; Group IX: APAP 1000 mg/kg, MnTBAP 50 mg/kg (P) per os, time 22 h): 66.6% | percentage of surviving animals ([6]; Group IX: APAP 1000 mg/kg, MnTBAP 50 mg/kg (P) per os, time 24 h): 66.6% | percentage of surviving animals ([6]; Group V: APAP 1000 mg/kg, MnTBAP 10 mg/kg (P), time 0 h): 100% | percentage of surviving animals ([6]; Group V: APAP 1000 mg/kg, MnTBAP 10 mg/kg (P), time 6 h): 100% | percentage of surviving animals ([6]; Group V: APAP 1000 mg/kg, MnTBAP 10 mg/kg (P), time 8 h): 100% | percentage of surviving animals ([6]; Group V: APAP 1000 mg/kg, MnTBAP 10 mg/kg (P), time 9 h): 91.4% | percentage of surviving animals ([6]; Group V: APAP 1000 mg/kg, MnTBAP 10 mg/kg (P), time 10 h): 88.6% | percentage of surviving animals ([6]; Group V: APAP 1000 mg/kg, MnTBAP 10 mg/kg (P), time 11 h): 77.1% | percentage of surviving animals ([6]; Group V: APAP 1000 mg/kg, MnTBAP 10 mg/kg (P), time 12 h): 74.3% | percentage of surviving animals ([6]; Group V: APAP 1000 mg/kg, MnTBAP 10 mg/kg (P), time 13 h): 74.3% | percentage of surviving animals ([6]; Group V: APAP 1000 mg/kg, MnTBAP 10 mg/kg (P), time 14 h): 71.4% | percentage of surviving animals ([6]; Group V: APAP 1000 mg/kg, MnTBAP 10 mg/kg (P), time 15 h): 71.4% | percentage of surviving animals ([6]; Group V: APAP 1000 mg/kg, MnTBAP 10 mg/kg (P), time 16 h): 68.6%
